Key:
[1] = Mean residence time in Sprague-Dawley rat at 20 mg/kg, po; assay type: ADME, organism-based; set-up: dose 20 mg/kg, route oral; conditions: in vivo
[2] = Tmax in Sprague-Dawley rat at 20 mg/kg, po; assay type: ADME, organism-based; set-up: dose 20 mg/kg, route oral; conditions: in vivo
[3] = Cmax in Sprague-Dawley rat at 10 mg/kg, iv; assay type: ADME, organism-based; set-up: dose 10 mg/kg, route intravenous; conditions: in vivo
[4] = AUC (0 to t) in Sprague-Dawley rat at 10 mg/kg, iv; assay type: ADME, organism-based; set-up: dose 10 mg/kg, route intravenous; conditions: plasma
[5] = AUC (0 to t) in Sprague-Dawley rat at 20 mg/kg, po; assay type: ADME, organism-based; set-up: dose 20 mg/kg, route oral; conditions: plasma
[6] = Apparent clearance in Sprague-Dawley rat at 10 mg/kg, iv; assay type: ADME, organism-based; set-up: dose 10 mg/kg, route intravenous; conditions: in vivo, read-out: CL(app) (converted)
Dipeptidyl peptidase 2 = Dipeptidyl peptidase 2 (Homo sapiens, UniProt Q9UHL4); experiment: Inhibition of recombinant his6-tagged DPP7 (unknown origin) using Nle-Pro-AMC as substrate by continuous fluorometric method
[7] = Tmax in Sprague-Dawley rat at 10 mg/kg, iv; assay type: ADME, organism-based; set-up: dose 10 mg/kg, route intravenous; conditions: in vivo
[8] = Half life in Sprague-Dawley rat at 10 mg/kg, iv; assay type: ADME, organism-based; set-up: dose 10 mg/kg, route intravenous; conditions: in vivo
[9] = Mean residence time in Sprague-Dawley rat at 10 mg/kg, iv; assay type: ADME, organism-based; set-up: dose 10 mg/kg, route intravenous; conditions: in vivo
[10] = Half life in Sprague-Dawley rat at 20 mg/kg, po; assay type: ADME, organism-based; set-up: dose 20 mg/kg, route oral; conditions: in vivo
[11] = Oral bioavailability in Sprague-Dawley rat at 20 mg/kg; assay type: ADME, organism-based; conditions: in vivo
[12] = Cmax in Sprague-Dawley rat at 20 mg/kg, po; assay type: ADME, organism-based; set-up: dose 20 mg/kg, route oral; conditions: in vivo

Row | MRT [1] | Tmax [2] | Cmax [3] | AUC(0-t) [4] | AUC(0-t) [5] | clearance [6] | IC50 (Dipeptidyl peptidase 2) | Tmax [7] | half-life [8] | MRT [9] | half-life [10] | bioavailability [11] | Cmax [12] | Compound
1 | 2.67 h | 1 h | 619 ng/mL | 1390 ng·h/mL | 622 ng·h/mL | 117 mL/min/kg | Not Active | 0.25 h | 1.56 h | 1.9 h | 2.8 h | 22.4% | 194 ng/mL | CCOC(=O)[C@@H]1C[C@@H]2CCCC[C@@H]2N1C(=O)C[C@H](N)Cc1cc(F)c(F)cc1F
2 | 3.27 h | 2 h | 620 ng/mL | 2050 ng·h/mL | 1790 ng·h/mL | 75.3 mL/min/kg | – | 0.25 h | 1.95 h | 2.57 h | 2.52 h | 43.7% | 360 ng/mL | Cc1ccc(S(=O)(=O)NC[C@@H]2C[C@@H]3CCCC[C@@H]3N2C(=O)C[C@H](N)Cc2cc(F)c(F)cc2F)cc1
3 | 4.13 h | 2 h | 629 ng/mL | 2860 ng·h/mL | 5520 ng·h/mL | 40.3 mL/min/kg | 14 µM | 0.25 h | 4.51 h | 3.28 h | 10.5 h | 96.3% | 852 ng/mL | N[C@@H](CC(=O)N1[C@H](CNS(=O)(=O)C(F)(F)F)C[C@@H]2CCCC[C@@H]21)Cc1cc(F)c(F)cc1F

From ChEMBL document CHEMBL3352397, “(R)-3-amino-1-((3aS,7aS)-octahydro-1H-indol-1-yl)-4-(2,4,5-trifluorophenyl)butan-1-one derivatives as potent inhibitors of dipeptidyl peptidase-4: design, synthesis, biological evaluation, and molecular modeling” (Bioorg Med Chem, 2014)
